# Reference: US20240383954A1, “PEPTIDE INHIBITORS OF INTERLEUKIN-23 RECEPTOR AND THEIR USE TO TREAT INFLAMMATORY DISEASES” (Janssen Biotech, Inc., priority 2020, published 2024)
# Positions of bridges follow the written chain, without caps; N, C: chain ends. Non-standard residues stand in square brackets, D forms with d. Residues, ends and D or L forms follow the SMILES beside them. *: point of attachment. Trp(7-Me) = Cc1cccc2c(C[C@H](N)C(=O)O)c[nH]c12; 2Nal = N[C@@H](Cc1ccc2ccccc2c1)C(=O)O; AEF = NCCOc1ccc(C[C@H](N)C(=O)O)cc1; Pen = CC(C)(S)[C@H](N)C(=O)O; Ac5c = NC1(C(=O)O)CCCC1; Thp = NC1(C(=O)O)CCOCC1; Propionyl = CCC(=O)*
# Target: IL-23R (Homo sapiens, UniProt Q5VWK5)
# Test: cell-based
# Conditions: PBMC pSTAT3 IC50 (nM), PBMCs from healthy donors, IL-23 5 ng/mL, 30 minutes, phosphorylated STAT3
# 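Note: cryopreserved PBMCs stimulated at 37 °C in 5% CO2, then lysed, with phosphorylated STAT3 quantified in lysates using a phospho-STAT panel kit.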
# Chain of IL-23R (Q5VWK5 24-629): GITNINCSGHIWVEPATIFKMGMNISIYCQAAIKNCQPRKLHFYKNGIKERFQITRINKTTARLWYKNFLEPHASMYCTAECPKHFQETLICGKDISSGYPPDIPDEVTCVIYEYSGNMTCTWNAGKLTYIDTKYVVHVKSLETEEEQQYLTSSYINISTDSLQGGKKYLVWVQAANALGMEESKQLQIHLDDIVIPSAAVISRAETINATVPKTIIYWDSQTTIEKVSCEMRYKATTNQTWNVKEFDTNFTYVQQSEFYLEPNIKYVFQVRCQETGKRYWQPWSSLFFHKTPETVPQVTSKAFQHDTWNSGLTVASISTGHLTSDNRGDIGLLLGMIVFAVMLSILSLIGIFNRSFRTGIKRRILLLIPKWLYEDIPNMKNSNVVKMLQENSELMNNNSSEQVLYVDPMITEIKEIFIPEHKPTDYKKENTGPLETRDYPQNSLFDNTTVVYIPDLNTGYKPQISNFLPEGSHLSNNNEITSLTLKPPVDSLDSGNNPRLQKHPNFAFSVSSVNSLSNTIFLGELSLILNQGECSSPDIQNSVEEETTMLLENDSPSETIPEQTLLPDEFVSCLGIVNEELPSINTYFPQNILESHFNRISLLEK
row,SMILES,IC50 [nM]
1,"CC(=O)N[C@H](CCCNC(=N)N)C(=O)N[C@@H]1C(=O)N[C@@H](CCC(N)=O)C(=O)N[C@@H]([C@@H](C)O)C(=O)N[C@@H](Cc2c[nH]c3ccccc23)C(=O)N[C@@H](CCC(N)=O)C(=O)N[C@H](C(=O)N[C@@H](Cc2ccc(OCCN)cc2)C(=O)N[C@@H](Cc2ccc3ccccc3c2)C(=O)NC2(C(=O)N[C@@H](CCCCNC(=O)C3CC3)C(=O)N[C@@H](CC(N)=O)C(=O)NC3(C(N)=O)CCOCC3)CCOCC2)C(C)(C)SSC1(C)C [Compound 51, Ac-[(D)Arg]-[Pen]-Q-T-W-Q-[Pen]-Phe[4-(2-aminoethoxy)]-[2-Nal]-[THP]-[Lys(COcPr)]-N-[THP]-NH2]",27
2,"CC(=O)N[C@H](CCCNC(=N)N)C(=O)N[C@@H]1C(=O)N[C@@H](CC(N)=O)C(=O)N[C@@H]([C@@H](C)O)C(=O)N[C@@H](Cc2c[nH]c3c(C)cccc23)C(=O)N[C@@H](CCC(N)=O)C(=O)N[C@H](C(=O)N[C@@H](Cc2ccc(OCCN)cc2)C(=O)N[C@@H](Cc2ccc3ccccc3c2)C(=O)NC2(C(=O)N[C@@H](CCC(=O)O)C(=O)N[C@@H](CC(N)=O)C(=O)NC3(C(N)=O)CCOCC3)CCCC2)C(C)(C)SSC1(C)C [Compound 99, Ac-[(D)Arg]-[Pen]-N-T-[W(7-Me)]-Q-[Pen]-Phe[4-(2-aminoethoxy)]-[2-Nal]-[Acvc]-E-N-[THP]-NH2] (Ac-[dR][Pen]NT[Trp(7-Me)]Q[Pen][AEF][2Nal][Ac5c]EN[Thp]-NH2; disulfide 2-7)",4.2
3,"CC(=O)NCCCC[C@@H]1NC(=O)[C@H](Cc2c[nH]c3c(C)cccc23)NC(=O)[C@H]([C@@H](C)O)NC(=O)[C@H](CC(N)=O)NC(=O)[C@@H](NC(C)=O)C(C)(C)SSC(C)(C)[C@@H](C(=O)N[C@@H](Cc2ccc(OCCN)cc2)C(=O)N[C@@H](Cc2ccc3ccccc3c2)C(=O)N[C@@](C)(CCCCN)C(=O)N[C@@H](CCCCNC(C)=O)C(=O)N[C@@H](CC(N)=O)C(=O)N[C@@](C)(Cc2ccccc2)C(=O)N[C@H](Cc2ccc(O)cc2)C(N)=O)NC1=O [Compound 100, Ac-[Pen]-N-T-[W(7-Me)]-[Lys(Ac)]-[Pen]-Phe[4-(2-aminoethoxy)]-[2-Nal]-[a-MeLys]-[Lys(Ac)]-N-[a-MePhe]-[(D)Tyr]-NH2]",21
4,"CCC(=O)NCCCC[C@H](NC(=O)C1(NC(=O)[C@H](Cc2ccc3ccccc3c2)NC(=O)[C@H](Cc2ccc(OCCN)cc2)NC(=O)[C@H]2NC(=O)[C@H](CCC(N)=O)NC(=O)[C@H](Cc3c[nH]c4ccccc34)NC(=O)[C@H]([C@@H](C)O)NC(=O)[C@H](CCC(N)=O)NC(=O)[C@@H](NC(=O)[C@@H](CCCNC(=N)N)NC(C)=O)C(C)(C)SSC2(C)C)CCOCC1)C(=O)N[C@@H](CC(N)=O)C(=O)N[C@@H](Cc1ccccc1)C(N)=O [Compound 54, Ac-[(D)Arg]-[Pen]-Q-T-W-Q-[Pen]-Phe[4-(2-aminoethoxy)]-[2-Nal]-[THP]-[Lys(COEt)]-N-F-NH2] (Ac-[dR][Pen]QTWQ[Pen][AEF][2Nal][Thp]K(Propionyl)NF-NH2; disulfide 2-7)",47
5,"CC(=O)N[C@H](CCCNC(=N)N)C(=O)N[C@H]1CCSC[C@@H](C(=O)N[C@@H](Cc2ccc(OCCN)cc2)C(=O)N[C@@H](Cc2ccc3ccccc3c2)C(=O)NC2(C(=O)N[C@@](C)(CCC(=O)O)C(=O)N[C@@H](CC(N)=O)C(=O)N[C@@H](Cc3ccc4ccccc4c3)C(N)=O)CCOCC2)NC(=O)[C@H](CCC(N)=O)NC(=O)[C@H](Cc2c[nH]c3ccccc23)NC(=O)[C@H]([C@@H](C)O)NC(=O)[C@H](CCC(N)=O)NC1=O [Compound 35, Ac-[(D)Arg]-[Abu]-Q-T-W-Q-[Cys]-Phe[4-(2-aminoethoxy)]-[2-Nal]-[THP]-[aMeGlu]-N-[2-Nal]-NH2]",25
